Test results: EP1795539B1, “Cell penetrating peptides for intracellular delivery of molecules” (Centre National de la Recherche Scientifique, priority 2005, dated 2007)
Like-named read-outs stand apart in the source and are kept apart here. Ends that are not written are not given here. Peptide text beside a SMILES is read from it.

Tested on: HS-68 and Hela cells
Assay: Toxicity of CADY variants, MTT cell viability assay (Table 1)
Assay type: cell-based
Settings: for toxicity: at concentration of 100 µM; for EC50: free peptide, MTT, read-out: free EC50
Procedure: The toxicity of CADY peptides has been investigated on different cell lines. Cells were incubated in the presence of increasing concentrations of CADY (from 0.1 µM to 1 mM) for 12 hrs and cell viability was estimated using MTT assay.

| Molecule | toxicity [%] | EC50 [µM] | EC50 (listed as CADY-2d) [µM] |
| --- | --- | --- | --- |
| WEAALAEALAEALAEHLAEALAEALEALAA [GALA, reference compound] | > 70 |  |  |
| CC(C)C[C@H](NC(=O)CN)C(=O)N[C@@H](Cc1c[nH]c2ccccc12)C(=O)N[C@@H](CCCNC(=N)N)C(=O)N[C@@H](C)C(=O)N[C@@H](CC(C)C)C(=O)N[C@@H](Cc1c[nH]c2ccccc12)C(=O)N[C@@H](CCCNC(=N)N)C(=O)N[C@@H](CC(C)C)C(=O)N[C@@H](CC(C)C)C(=O)N[C@@H](CCCNC(=N)N)C(=O)N[C@@H](CO)C(=O)N[C@@H](CC(C)C)C(=O)N[C@@H](Cc1c[nH]c2ccccc12)C(=O)N[C@@H](CCCNC(=N)N)C(=O)N[C@@H](CC(C)C)C(=O)N[C@@H](CC(C)C)C(=O)N[C@@H](Cc1c[nH]c2ccccc12)C(=O)N[C@@H](CO)C(=O)N[C@@H](CCC(N)=O)C(=O)N1CCC[C@H]1C(=O)N[C@@H](CCCCN)C(=O)N[C@@H](CCCCN)C(=O)N[C@@H](CCCCN)C(=O)N[C@@H](CCCNC(=N)N)C(=O)N[C@@H](CCCCN)C(=O)N[C@H](C(=O)NCCS)C(C)C [CADY-2e] (HELM PEPTIDE1{G.L.W.R.A.L.W.R.L.L.R.S.L.W.R.L.L.W.S.Q.P.K.K.K.R.K.V.[SCCN[*:1]]}$$$$V2.0) |  | 430 |  |
| CC(C)C[C@H](NC(=O)CN)C(=O)N[C@@H](Cc1c[nH]c2ccccc12)C(=O)N[C@@H](CCCNC(=N)N)C(=O)N[C@@H](C)C(=O)N[C@@H](CC(C)C)C(=O)N[C@@H](Cc1c[nH]c2ccccc12)C(=O)N[C@@H](CCCNC(=N)N)C(=O)NCC(=O)N[C@@H](CC(C)C)C(=O)N[C@@H](CCCNC(=N)N)C(=O)N[C@@H](CO)C(=O)N[C@@H](CC(C)C)C(=O)N[C@@H](Cc1c[nH]c2ccccc12)C(=O)N[C@@H](CCCCN)C(=O)N[C@@H](CCCCN)C(=O)N[C@@H](CCCCN)C(=O)N[C@@H](CCCNC(=N)N)C(=O)N[C@@H](CCCCN)C(=O)N[C@H](C(=O)NCCS)C(C)C [CADY-1e] (HELM PEPTIDE1{G.L.W.R.A.L.W.R.G.L.R.S.L.W.K.K.K.R.K.V.[SCCN[*:1]]}$$$$V2.0) |  | 340 |  |
| CC(C)C[C@H](NC(=O)CN)C(=O)N[C@@H](Cc1c[nH]c2ccccc12)C(=O)N[C@@H](CCCNC(=N)N)C(=O)N[C@@H](C)C(=O)N[C@@H](CC(C)C)C(=O)N[C@@H](Cc1c[nH]c2ccccc12)C(=O)N[C@@H](CCCNC(=N)N)C(=O)N[C@@H](C)C(=O)N[C@@H](CC(C)C)C(=O)N[C@@H](Cc1c[nH]c2ccccc12)C(=O)N[C@@H](CCCNC(=N)N)C(=O)N[C@@H](CO)C(=O)N[C@@H](CC(C)C)C(=O)N[C@@H](Cc1c[nH]c2ccccc12)C(=O)N[C@@H](CCCCN)C(=O)N[C@@H](CO)C(=O)N[C@@H](CCCCN)C(=O)N[C@@H](CCCNC(=N)N)C(=O)N[C@@H](CCCCN)C(=O)N[C@H](C(=O)NCCS)C(C)C [CADY-2b] (HELM PEPTIDE1{G.L.W.R.A.L.W.R.A.L.W.R.S.L.W.K.S.K.R.K.V.[SCCN[*:1]]}$$$$V2.0) |  | 280 |  |
| CC(C)C[C@H](NC(=O)CN)C(=O)N[C@@H](Cc1c[nH]c2ccccc12)C(=O)N[C@@H](CCCNC(=N)N)C(=O)N[C@@H](C)C(=O)N[C@@H](CC(C)C)C(=O)N[C@@H](Cc1c[nH]c2ccccc12)C(=O)N[C@@H](CCCNC(=N)N)C(=O)N[C@@H](C)C(=O)N[C@@H](CC(C)C)C(=O)N[C@@H](Cc1c[nH]c2ccccc12)C(=O)N[C@@H](CCCNC(=N)N)C(=O)N[C@@H](CO)C(=O)N[C@@H](CC(C)C)C(=O)N[C@@H](Cc1c[nH]c2ccccc12)C(=O)N[C@@H](CCCCN)C(=O)N[C@@H](CC(C)C)C(=O)N[C@@H](CCCCN)C(=O)N[C@@H](CCCNC(=N)N)C(=O)N[C@@H](CCCCN)C(=O)N[C@H](C(=O)NCCS)C(C)C [CADY-1b] (HELM PEPTIDE1{G.L.W.R.A.L.W.R.A.L.W.R.S.L.W.K.L.K.R.K.V.[SCCN[*:1]]}$$$$V2.0) |  | 500 | 380 |
| WEAKLAKALAKALAKHLAKALAKALKACEA [KALA, reference compound] | > 70 |  |  |
| CC(C)C[C@H](NC(=O)CN)C(=O)N[C@@H](Cc1c[nH]c2ccccc12)C(=O)N[C@@H](CCCNC(=N)N)C(=O)N[C@@H](C)C(=O)N[C@@H](CC(C)C)C(=O)N[C@@H](Cc1c[nH]c2ccccc12)C(=O)N[C@@H](CCCNC(=N)N)C(=O)N[C@@H](C)C(=O)N[C@@H](CC(C)C)C(=O)N[C@@H](CCCNC(=N)N)C(=O)N[C@@H](CO)C(=O)N[C@@H](CC(C)C)C(=O)N[C@@H](Cc1c[nH]c2ccccc12)C(=O)N[C@@H](CCCCN)C(=O)N[C@@H](CC(C)C)C(=O)N[C@@H](CCCCN)C(=O)N[C@@H](CCCNC(=N)N)C(=O)N[C@@H](CCCCN)C(=O)N[C@H](C(=O)NCCS)C(C)C [CADY-1c] (HELM PEPTIDE1{G.L.W.R.A.L.W.R.A.L.R.S.L.W.K.L.K.R.K.V.[SCCN[*:1]]}$$$$V2.0) |  | 450 |  |
| CC(C)C[C@H](NC(=O)CN)C(=O)N[C@@H](Cc1c[nH]c2ccccc12)C(=O)N[C@@H](CCCNC(=N)N)C(=O)N[C@@H](C)C(=O)N[C@@H](CC(C)C)C(=O)N[C@@H](Cc1c[nH]c2ccccc12)C(=O)N[C@@H](CCCNC(=N)N)C(=O)NCC(=O)N[C@@H](CC(C)C)C(=O)N[C@@H](CCCNC(=N)N)C(=O)N[C@@H](CO)C(=O)N[C@@H](CC(C)C)C(=O)N[C@@H](Cc1c[nH]c2ccccc12)C(=O)N[C@@H](CCCCN)C(=O)N[C@@H](CC(C)C)C(=O)N[C@@H](CCCCN)C(=O)N[C@@H](CCCNC(=N)N)C(=O)N[C@@H](CCCCN)C(=O)N[C@H](C(=O)NCCS)C(C)C [CADY-1d] (HELM PEPTIDE1{G.L.W.R.A.L.W.R.G.L.R.S.L.W.K.L.K.R.K.V.[SCCN[*:1]]}$$$$V2.0) |  | 500 |  |
| CC(=O)NCC(=O)N[C@@H](CC(C)C)C(=O)N[C@@H](Cc1c[nH]c2ccccc12)C(=O)N[C@@H](CCCNC(=N)N)C(=O)N[C@@H](C)C(=O)N[C@@H](CC(C)C)C(=O)N[C@@H](Cc1c[nH]c2ccccc12)C(=O)N[C@@H](CCCNC(=N)N)C(=O)N[C@@H](C)C(=O)N[C@@H](CC(C)C)C(=O)N[C@@H](Cc1c[nH]c2ccccc12)C(=O)N[C@@H](CCCNC(=N)N)C(=O)N[C@@H](CO)C(=O)N[C@@H](CC(C)C)C(=O)N[C@@H](Cc1c[nH]c2ccccc12)C(=O)N[C@@H](CCCCN)C(=O)N[C@@H](CC(C)C)C(=O)N[C@@H](CCCCN)C(=O)N[C@@H](Cc1c[nH]c2ccccc12)C(=O)N[C@@H](CCCCN)C(=O)N[C@H](C(=O)NCCS)C(C)C [CADY-2] (HELM PEPTIDE1{[ac].G.L.W.R.A.L.W.R.A.L.W.R.S.L.W.K.L.K.W.K.V.[SCCN[*:1]]}$$$$V2.0) |  | 230 |  |
| CC(C)C[C@H](NC(=O)CN)C(=O)N[C@@H](Cc1c[nH]c2ccccc12)C(=O)N[C@@H](CCCNC(=N)N)C(=O)N[C@@H](C)C(=O)N[C@@H](CC(C)C)C(=O)N[C@@H](Cc1c[nH]c2ccccc12)C(=O)N[C@@H](CCCNC(=N)N)C(=O)N[C@@H](C)C(=O)N[C@@H](CC(C)C)C(=O)N[C@@H](Cc1c[nH]c2ccccc12)C(=O)N[C@@H](CCCNC(=N)N)C(=O)N[C@@H](CO)C(=O)N[C@@H](CC(C)C)C(=O)N[C@@H](Cc1c[nH]c2ccccc12)C(=O)N[C@@H](CCCCN)C(=O)N[C@@H](CCCCN)C(=O)N[C@@H](CCCCN)C(=O)N[C@@H](CCCNC(=N)N)C(=O)N[C@@H](CCCCN)C(=O)N[C@H](C(=O)NCCS)C(C)C [CADY-2c] (HELM PEPTIDE1{G.L.W.R.A.L.W.R.A.L.W.R.S.L.W.K.K.K.R.K.V.[SCCN[*:1]]}$$$$V2.0) |  | 340 |  |
